2 compounds from paper PMC11200976, “Pitavastatin Calcium Confers Fungicidal Properties to Fluconazole by Inhibiting Ubiquinone Biosynthesis and Generating Reactive Oxygen Species” (Antioxidants, 2024) can be followed below.

Like-named read-outs stand apart in the source and are kept apart here. A value given as a limit tells only on which side of the number the result lay.

Series [1] has as its system ERG1, ERG11, and ERG251 genes. In kind it is cell-based, Candida albicans. To be noted: 2 μM PIT alone, 8 h.
In series [2] the test system is C. albicans. Description: Determination of MFC. In kind it is cell-based, Candida albicans. The note with it: for MFC: Candida albicans. The procedure:
The determination of MFC followed the previously described method. In brief, a tested drug at a concentration two times higher than the final concentration was diluted in a two-fold serial dilution manner across ten columns of the plate, with each well containing 100 μL of the drug. Subsequently, 100 μL of C. albicans cultures (1 × 10^4 cells/mL) were transferred into wells with and without any drugs as the control. Following incubation at 30 °C for 48 h, a 200 μL aliquot per well was removed and evenly spread on SDA plates, which were then incubated at 30 °C for 48 h. The MFC value was determined as the lowest drug concentration at which 99.9% of fungal colonies were eradicated compared to the control group.

Series [3] relates to C. albicans. Description: Dose–matrix titration assays (synergy, with YPD recovery plates). The format is cell-based, Candida albicans. The note with it: FLC ≤4 μg/mL; YPD, 30 °C, 48 h. The protocol:
The synergistic effects of drugs were conducted following the same procedure as the MIC assays. Specifically, 50 μL of drug A was distributed through two-fold serial dilution across seven plate columns. Subsequently, 50 μL of drug B was distributed in a two-fold serial dilution manner along seven rows of the plate. Furthermore, 100 μL of C. albicans cultures, adjusted to a density of 1 × 10^3 cells/mL, was dispensed into wells containing drugs and one control well devoid of any drugs. Before the 48 h OD600 readings, the plates were subjected to meticulous agitation to ensure the deposition of a representative 2 μL aliquot from each well onto newly prepared YPD recovery plates, thereby facilitating the evaluation of cellular recuperation following drug treatments. The recovery plates were subsequently incubated at a temperature of 30 °C for a duration ranging from 24 to 48 h, after which they were photographed. The experimental procedures were conducted in triplicate to ensure reliability and reproducibility.

Series [4] in a line: Acute toxicity, Up-and-Down procedure (OECD 425), intraperitoneal. The format is in vivo. To be noted: C57BL/6, mouse, in vivo, ip, mice. The protocol: Following a previously described methodology, the intraperitoneal route was employed in adult mice. In brief, the primary test involved a sequential administration of doses at intervals of at least 48 h, with one mouse being dosed at a time. Initially, a dose below LD50 was administered intraperitoneally to a mouse. If the mouse survived, the subsequent mouse would receive 1.3 times the initial dose. Conversely, if the mouse died, the subsequent mouse would receive a dose decreased by 1.3 times the initial dose. Each mouse was monitored for 48 h before determining the subsequent mouse’s dosage and administration. The experiment was terminated upon five “survive or die” reversals within a consecutive set of six animals tested. Subsequently, the LD50 and its corresponding confidence interval were computed based on the conditions observed in all mice after the experiment.

The subject of series [5] is C. albicans. As to the kind of experiment: Broth microdilution assay of synergistic lethality with 4 μg/mL FLC (recovery on drug-free YPD). In kind it is cell-based, Candida albicans. To be noted: with 4 μg/mL FLC; tested 100 μM to 0.1953 μM; 30 °C, 48 h.
In series [6] the test system is C. albicans SC5314, SN152, cmp1-aid∆/cmp1-aid∆, and PADH1-UPC2 strains. Description: FLC disk diffusion assays (25 μg FLC disk, 5 μM adjuvant). The format is cell-based, Candida albicans. To be noted: SC5314, SN152, cmp1-aid∆/cmp1-aid∆, PADH1-UPC2. The protocol:
Yeast cells were cultured overnight at a temperature of 30 °C, and the resulting cell suspension was diluted to a concentration of 1 × 10^7 cells/mL in phosphate-buffered saline (PBS). At a concentration of 5 μM, the drugs were individually added to YPD plates for disk assays using a 25 μg FLC disk (6 mm, Liofilchem, Roseto degli Abruzzi, Italy). The plates were then incubated at 30 °C for 48 h. Subsequently, the disk was transferred to a drug-free YPD plate, which was incubated at 30 °C for 24 h and photographed.
For orientation: In agar diffusion tests the substance spreads into inoculated agar from a disc or well.

For series [7], the system named is C. albicans. As to the kind of experiment: Spotting assay. In kind it is cell-based, Candida albicans. The note with it: 4 μM PIT; compared to wild-type strain and other heterozygous gene deletion mutants. The procedure:
The spotting assays were conducted following the previously described method. In summary, C. albicans cultures were adjusted to a cell density of 1 × 10^7 cells/mL using a hemacytometer. Subsequently, the cultures were serially diluted 1:10 and spotted onto a designated YPD solid medium containing specified concentrations of compounds. Following incubation at 30 °C for 48 h, photographs capturing the cell growth were taken, and the assays were replicated thrice.

The test system of series [8] is C. albicans. Description: MIC assays (CLSI M27 broth microdilution). In kind it is cell-based, Candida albicans. To be noted: for MIC: Candida albicans. The procedure: The MIC assays for C. albicans were conducted following the broth microdilution protocol outlined by the Clinical and Laboratory Standards Institute (CLSI) protocols (M27, 4th edition). In brief, FDA-approved drugs were diluted in 96-well plates at two-fold the final concentration, with 4 μg/mL FLC. This dilution was combined with the cell suspension with a concentration of 1 × 10^3 cells/mL. The plates were incubated at a temperature of 30 °C for 48 h without agitation.
A general note: Dilution methods test growth across graded concentrations, often in twofold steps.

Series [9] relates to Candida guilliermondii clinical isolates. As to the kind of experiment: Supra-MIC growth (SMG) of FLC in clinical isolates. The format is cell-based. To be noted: n = 7 isolates.
Series [10] deals with C. albicans clinical isolates. As to the kind of experiment: Supra-MIC growth (SMG) of FLC in clinical isolates. To be noted: n = 7 isolates. The format is cell-based, Candida albicans.
Series [11] relates to Candida glabrata clinical isolates. Description: Supra-MIC growth (SMG) of FLC in clinical isolates. The format is cell-based. To be noted: n = 4 isolates.
In series [12] the test system is C. albicans. Description: Murine invasive C. albicans infections (C57BL/6 mice). The format is in vivo, Candida albicans. The protocol:
. Before commencing drug therapy, the mice were inoculated with 200 μL of PBS containing 2 × 10^5 C. albicans cells via the lateral tail vein. […]. The mice were weighed, and their weights were recorded every three days while their survival was monitored daily for 30 days. Two-tailed unpaired t-tests were employed to assess the weight changes. Kaplan–Meier analyses were employed to assess the survival probabilities, while log-rank testing was utilized to determine the statistical significance of the survival curves. In the case of fungal burden analyses, the mice were closely monitored twice daily for any indications of infection and were euthanized humanely upon reaching the predetermined endpoints. Subsequently, each mouse’s spleen, liver, and kidneys were harvested and homogenized in sterile PBS after sacrifice, followed by streaking onto SDA agar plates. Following a 48 h incubation period, the colonies were quantified, and colony-forming units (CFUs) were calculated. For histopathological analysis, kidney tissues from mice infected for 6 or 10 days were procured and fixed in buffered formalin. Subsequently, the tissues were embedded in paraffin, sectioned into 3–4 μm slices, and subjected to PAS staining using established protocols. All experimental procedures involving animals were approved by the Tongji University Animal Care Committee (No.: TJAA00322101).

The LD50 is the dose at which mortality reaches 50%. As to `O=C(O)C[C@H](O)C[C@H](O)/C=C/c1c(C2CC2)nc2ccccc2c1-c1ccc(F)cc1` [PIT, pitavastatin calcium], the “mRNA expression level of ERG1 gene, upregulation” value in series [1] is given as 2 fold. In addition, in [1], the “mRNA expression level of ERG11 gene, upregulation” value is 2 fold. The “mRNA expression level of ERG251 gene, upregulation” value in series [1] was found to be 2 fold. Besides, the “concentration of PIT that renders FLC fungicidal” value in [2] (as low as) came to 1 µM. Also, the “concentration that renders FLC fungicidal (no recovery on YPD solid medium)” value in series [3] was no more than 3.125 µM. Also, in series [4], the LD50 at 48 h stood at 104 mg/kg. Besides, in series [5], the “synergistic lethal concentration (converts FLC from fungistatic to fungicidal)” value was no more than 6.25 µM. In addition, the “effect on FLC tolerance in FLC disk diffusion, all four strains” value in series [6] was “made FLC fungicidal”. Also, the “susceptibility of HMG1/hmg1Δ, ERG8/erg8Δ and IDI1/idi1Δ mutants to PIT” value in [7] is “more susceptible”. For the same compound, in series [8] (100 μM exogenous ergosterol, SN152, MIC and spotting assays), the “antifungal efficacy of PIT with exogenous ergosterol” value is “negated”. Also, the “antifungal effects of PIT with exogenous mevalonate” value in series [8] (100 μM exogenous mevalonate, SN152, MIC and spotting assays) is on record as “mitigated”. In addition, the MIC in series [8] (SEC14/sec14△, YPD, read-out: MIC of PIT) was found to be 2 µM; in [8] (SN152, YPD, read-out: MIC of PIT) it was 2 µM; in [8] (age3△/age3△, YPD, read-out: MIC of PIT), 2 µM; in series [8] (control strain (wild-type), read-out: MIC of PIT), 3.12 µg/mL; in series [8] (hac1△/hac1△, YPD, read-out: MIC of PIT), 2 µM; in [8] (hse1△/hse1△, YPD, read-out: MIC of PIT) it was 2 µM. In addition, the MIC came to 2 µM in [8] (ire1△/ire1△, YPD, read-out: MIC of PIT); 2 µM in series [8] (mvb12△/mvb12△, YPD, read-out: MIC of PIT); 0.195 µg/mL in series [8] (read-out: MIC of PIT, erg11∆/erg11∆ null mutant); 2 µM in series [8] (snf7△/snf7△, YPD, read-out: MIC of PIT); 2 µM in [8] (vps20△/vps20△, YPD, read-out: MIC of PIT); 2 µM in series [8] (vps22△/vps22△, YPD, read-out: MIC of PIT). The MIC in series [8] (vps23△/vps23△, YPD, read-out: MIC of PIT) worked out at 2 µM; in series [8] (vps28△/vps28△, YPD, read-out: MIC of PIT) it was 2 µM; in [8] (vps36△/vps36△, YPD, read-out: MIC of PIT), 2 µM.

A word on the MFC: it is the smallest concentration meeting the test's criterion for killing the fungus. For `OC(Cn1cncn1)(Cn1cncn1)c1ccc(F)cc1F` [FLC, Fluconazole], the “SMG value of FLC” value in series [9] (FLC alone) came out at 0.0667; in series [9] (in combination with PIT, p = 0.0362), 0.0166; in series [10] (FLC alone), 0.1203; in series [10] (in combination with PIT, p = 0.002), 0; in [11] (FLC alone), 0.3169; in series [11] (in combination with PIT, p = 0.0442) it was 0.0031. Further, the MFC was greater than 64 µg/mL in series [2] (absence of PIT) and 2 µg/mL in series [2] (in the presence of PIT (1 μM)). Moreover, in series [2] (in the presence of 1 μM PIT), the “ratio of MFC to MIC of FLC” value worked out at 4. Moreover, the “kidney fungal burden in cmp1-aidΔ/cmp1-aidΔ infected group compared to cmp1Δ/cmp1Δ infected group” value in series [12] (after 1 mg/kg FLC ip for 3 days, 6 or 10 days after infection) is reported as “notably greater”. In series [12] (clinical isolate 283, FLC 4 mg/kg, PIT 3 mg/kg, 30-day observation period), the mortality rate is recorded as 50%. Also, in [12] (clinical isolate 283, FLC 4 mg/kg, PIT 3 mg/kg, ten mice per group), the “average weight loss on the 15th day of infection” value is 1.16 ± 0.63 g. The MIC in series [8] (SEC14/sec14△, YPD + 0.5 μM PIT, read-out: MIC of FLC) is 1 µg/mL; in series [8] (SEC14/sec14△, YPD + 1 μM PIT, read-out: MIC of FLC) it was 0.5 µg/mL; in [8] (SEC14/sec14△, YPD, read-out: MIC of FLC), 1 µg/mL; in [8] (SN152, YPD, read-out: MIC of FLC) it was 1 µg/mL; in series [8] (read-out: MIC of FLC, age3△/age3△, YPD + 0.5 μM PIT), 0.25 µg/mL; in series [8] (read-out: MIC of FLC, age3△/age3△, YPD + 1 μM PIT), 0.125 µg/mL.
